Laboratory results: PubChem BioAssay (NCI)
“And” between values parts separate entries of the source, which are not always exact repeats. Equal values may be shown once.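 Values below derive from 48-hour exposures of cells grown in 96-well plates, with endpoints linearly interpolated between the two concentrations bracketing the appropriate inhibition level. Here, GI50 denotes the concentration required for 50% inhibition of growth. TGI is the concentration that stops growth completely.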

How the values were obtained:
Assay in all cases: NCI-60 cell line screen, 48 h
OVCAR-8 ovarian = tested on: OVCAR-8 ovarian
U251 CNS = tested on: U251 CNS
NCI/ADR-RES ovarian = tested on: NCI/ADR-RES ovarian
OVCAR-5 ovarian = tested on: OVCAR-5 ovarian
MDA-MB-435 = tested on: MDA-MB-435

Structure (SMILES) | GI50 (OVCAR-8 ovarian) | TGI (OVCAR-8 ovarian) | GI50 (U251 CNS) | TGI (U251 CNS) | GI50 (NCI/ADR-RES ovarian) | TGI (NCI/ADR-RES ovarian) | GI50 (OVCAR-5 ovarian) | TGI (OVCAR-5 ovarian) | GI50 (MDA-MB-435) | TGI (MDA-MB-435)
CO[C@H]1/C=C/C=C/C=C/C[C@H](OC(=O)[C@@H](C)NC(=O)C2CCCCC2)[C@H](C)[C@@H](O)/C(C)=C\CCC2=CC(=O)C=C(NC(=O)C1)C2=O | 0.194 µM | 1.57 µM | 0.0985 µM | 0.953 µM | 4 µM | > 50 µM | 0.324 µM | 2.89 µM | 0.154 µM | 0.989 µM
Cc1ccc(/C=C2\CN(C(=O)CCN3CCC(=NO)CC3)C/C(=C\c3ccc(C)cc3)C2=O)cc1 | – | – | – | – | – | – | 1.79 µM | 3.47 µM | – | –
CCCCOc1nc2ccccc2cc1C1CNC(=O)c2ccccc2N1 (stereo not drawn) | 3.64 µM | 15.7 µM | 3.35 µM | 14.2 µM | 2.12 µM | 8.76 µM | 5.4 µM | 31.4 µM | 0.546 µM | 1.82 µM
COC(=O)CCCCCCCCC(=O)c1c(C)[nH]c(/C=C2\N=C(c3ccc[nH]3)C=C2OC)c1C | 14.4 µM | > 59.9 µM | 10.9 µM | > 100 µM | 24.2 µM | > 100 µM | > 28.7 µM | > 100 µM | 3.92 µM | > 100 µM
O=C(O)c1ccccc1/C=C1/Nc2ccccc2C1=O | – | > 100 µM | – | > 100 µM | – | > 100 µM | – | > 100 µM | – | > 100 µM
COC(=O)C12CC(NC(=O)c3csc([C@@H](C[C@H](C(C)C)N(C)C(=O)[C@@H](NC(=O)[C@H]4CCCCN4C)C(C)C)OC(C)=O)n3)(C1)C2 | 0.00429 µM and 0.00333 µM | > 33.3 µM | 0.00429 µM and 0.00333 µM | > 33.3 µM | 0.147 µM | > 33.3 µM | – | > 33.3 µM | 0.000165 µM | 0.00169 µM
C=C1C(=O)O[C@H]2[C@H]1CC/C(COC(=O)c1ccc(Br)cc1)=C\CC[C@@]1(C)O[C@@H]21 | 1.87 µM | 5 µM | 1.55 µM | 2.98 µM | 2.34 µM | 8.68 µM | 1.68 µM | 3.62 µM | 1.79 µM | 3.5 µM
O=C(c1nc2ccccc2[nH]1)C1C(c2cccc([N+](=O)[O-])c2)C2CC3CCCCC3N2[C@@]12C(=O)Nc1cc(Cl)ccc12 (stereo partly drawn) | 2.68 µM | 20.1 µM | – | – | 2.51 µM | 8.18 µM | 1.48 µM | 3.11 µM | 1.65 µM | 3.19 µM
CC(=O)O[C@H]1Cc2c([nH]c3ccccc23)[C@@H](c2ccc(Cl)cc2)N1C(=O)CCNC(C)(C)C | 4.86 µM | 9.45 µM | 4.33 µM | 8.62 µM | 5.57 µM | 12.2 µM | 4.24 µM | 8.54 µM | 4.68 µM | 9.06 µM
c1ccc(-c2nn(-c3ccccc3)[n+](-c3ccccc3-c3ccccc3)n2)cc1 | 0.757 µM | 12.5 µM | 0.533 µM | 61.8 µM | > 78.7 µM | > 100 µM | 4.19 µM | > 100 µM | 0.461 µM | 2.82 µM
Cn1ccnc1C(=O)/C=C/c1ccc(CC(=O)Nc2cc(F)c(F)c(F)c2)cc1 | 1.33 µM | > 25 µM | 0.837 µM | 3.2 µM | 1.09 µM | > 25 µM | 3.63 µM | 9.39 µM | 3.36 µM | 10.4 µM
NS(=O)(=O)c1ccc(N=Nc2cc3ccccc3c(C(=O)O)c2O)cc1 | – | > 100 µM | – | > 95.2 µM | – | > 100 µM | – | > 94.5 µM | – | > 100 µM
O=C(N/N=C\c1cc(Br)cc(Br)c1O)N/N=C/c1cc(Br)cc(Br)c1O | 2.88 µM | 16.7 µM | 2.14 µM | 15.7 µM | 3.16 µM | 16 µM | 10.6 µM | 27.6 µM | 2.67 µM | 17.8 µM
CCc1cc(Nc2nccc(-c3c(-c4ccc(OC)c(C(=O)Nc5c(F)cccc5F)c4)nc4ccccn34)n2)c(OC)cc1N1CCC(N2CCN(S(C)(=O)=O)CC2)CC1 | > 100 µM | > 100 µM | > 100 µM | > 100 µM | > 100 µM | > 100 µM | > 100 µM | > 100 µM | > 100 µM | > 100 µM
Fc1ccc(-c2ncn(C3CCNCC3)c2-c2ccnc(Oc3ccc(Oc4ccccc4)cc3)n2)cc1 | 4.2 µM | 8.4 µM | 3.56 µM | 7.18 µM | 3.48 µM | 7.04 µM | 4.1 µM | 7.67 µM | 3.92 µM | 8.46 µM
COc1ccc(OC)c(/C=C/C(=O)c2ccc(SC)cc2)c1 | 24.3 µM | 68.7 µM | 12.7 µM | 26.9 µM | 3.28 µM | 11.8 µM | 18.3 µM | 36.4 µM | 2.09 µM | 8.91 µM
Nc1ccc(Sc2ccc3c4c2cccc4c(=O)n2c4ccccc4nc32)cc1 | 5.13 µM | 30.9 µM | 4.13 µM | 20.6 µM | 5.95 µM | 62.8 µM | 14.9 µM | 46 µM | 12.6 µM | 82.2 µM
CCOC(=O)Nc1ccc2nc(Sc3ccc(Cl)cc3)sc2c1 | 7.72 µM | 70.4 µM | 3.15 µM | 44.6 µM | 1.07 µM | 47.3 µM | 21.6 µM | > 100 µM | 0.222 µM | 0.561 µM
Clc1cc(-c2csc(Cl)c2)cs1 | – | > 100 µM | – | > 100 µM | – | > 100 µM | – | > 100 µM | – | > 100 µM
CCOC(=O)CCC(NC(=O)c1ccc(Nc2nc3cc(N)cc(N)c3nc2-c2ccccc2)cc1)C(=O)OCC (stereo not drawn) | 47.1 µM | > 100 µM | > 44.7 µM | > 66 µM | 35 µM | > 79.1 µM | 57.1 µM | > 93.2 µM | 29.9 µM | > 60.4 µM
C=C(C)[C@@H]1CC[C@@H]2C(=CC[C@]3(C)C([C@H](C)CC/C=C(/C)C(=O)O)CC[C@@]23C)[C@@]1(C)CCC(=O)O (stereo partly drawn) | – | > 100 µM | – | 70 µM | – | – | – | > 100 µM | – | 89.7 µM
COc1ccc(C(=O)C(CN(C)C)c2ccccc2)cc1 (stereo not drawn) | 3.46 µM | 12.5 µM | 4.39 µM | 14.8 µM | 2.7 µM | 6.97 µM | 3.82 µM | 10 µM | 2.83 µM | 11.4 µM
